Laboratory results from paper PMC7315563, “Bioactive fluorenes. Part III: 2,7-dichloro-9H-fluorene-based thiazolidinone and azetidinone analogues as anticancer and antimicrobial against multidrug resistant strains agents” (BMC Chemistry, 2020).
≈ marks a conversion by molar mass, not a printed value.

How the values were obtained:
[1] = tested on: E. coli; test: MIC by broth microdilution method (resazurin end point); format: cell-based; conditions: Escherichia coli, 24 h at 37 °C
Method: (§1) Determination of Minimum inhibitory concentrations (MIC) of flourene derivatives was done using broth microdilution method. The procedure involved preparation of twofold dilutions of the fluorene derivatives ranging from (500–7.8 μg/mL) in sterile Mueller–Hinton broth inside the wells of 96-well microplate (Sarstedt, Germany). The inoculums of test strains prepared from fresh overnight cultures were adjusted to 0.5 McFarland standards, which equals to 1–2 × 10^8 CFU/mL for bacteria, the procedure was done according to CLSI 2012 [42]. […] For this assay the positive control agents were vancomycin (range: 0.7–50 μg/mL), gentamicin (range: 0.15–10 μg/mL) and the negative control was 1% DMSO.
(§2) For proper determination of the MIC end point resazurin dye has been used. A stock solution of resazurin sodium salt powder (Titan Biotech) was prepared at 0.02% (wt/vol) in distilled water, sterilized by filtration through a […] filter into a sterile light protected container then stored protected from light at 4 °C for up to 1 week, or at − […] for long term use, then 10–15% resazurin solution of the total volume in wells was added to each well and incubation for 1–4 h at 37 °C was done. A change in color from blue to pink indicates the growth of bacteria, and MIC was defined as the lowest concentration of the drug that prevented this change in color.

[2] = tested on: A549 human lung cancer cells; test: cell viability assay (MTT); format: cell-based; conditions: 24 h; for viability at 1 µg/mL: read-out: Validity (%) for sample concentrations (µg/mL) 1; for viability at 10 µg/mL: read-out: Validity (%) for sample concentrations (µg/mL) 10; for viability at 31.25 µg/mL: read-out: Validity (%) for sample concentrations (µg/mL) 31.25; for viability at 62.5 µg/mL: 62.50 µg/mL, read-out: Validity (%) for sample concentrations (µg/mL) 62.50; for viability at 125 µg/mL: read-out: Validity (%) for sample concentrations (µg/mL) 125; for viability at 250 µg/mL: read-out: Validity (%) for sample concentrations (µg/mL) 250; for viability at 500 µg/mL: read-out: Validity (%) for sample concentrations (µg/mL) 500; for viability at 1000 µg/mL: read-out: Validity (%) for sample concentrations (µg/mL) 1000
[3] = tested on: Klebsiella pneumoniae (K. pneumoniae), multidrug resistant clinical isolate; test: agar well diffusion assay; format: cell-based; conditions: 24 h, 500 µg/mL of tested compound
Summary of the method: (§3)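 Multidrug-resistant clinical isolates swabbed on Mueller–Hinton agar at about 1–5 × 10^5 CFU/mL; 0.5 cm wells received 50 μL compound at 500 μg/mL in 1% DMSO. Incubation 24 h, 37 °C for bacteria and C. albicans, 25 °C for Aspergillus; inhibition zone diameter measured in mm.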

[4] = tested on: Escherichia coli (E. coli), multidrug resistant clinical isolate; test: agar well diffusion assay; format: cell-based; conditions: 24 h, 500 µg/mL of tested compound
Summary of the method: as §3

[5] = tested on: Staphylococcus aureus (S. aureus), multidrug resistant clinical isolate; test: agar well diffusion assay; format: cell-based; conditions: Staphylococcus aureus; S. aureus; 500 µg/mL of tested compound; 24 h
Summary of the method: as §3

[6] = tested on: methicillin-resistant Staphylococcus aureus (MRSA); test: agar well diffusion assay; format: cell-based; conditions: Staphylococcus aureus, 500 µg/mL of tested compound, 24 h
Summary of the method: as §3

[7] = tested on: WI-38 human normal fibroblast cells; test: cell viability assay (MTT); format: cell-based; conditions: 24 h; for viability at 31.25 µg/mL: read-out: Validity (%) for sample concentrations (µg/mL) 31.25; for viability at 62.5 µg/mL: 62.50 µg/mL, read-out: Validity (%) for sample concentrations (µg/mL) 62.50; for viability at 125 µg/mL: read-out: Validity (%) for sample concentrations (µg/mL) 125; for viability at 250 µg/mL: read-out: Validity (%) for sample concentrations (µg/mL) 250; for viability at 500 µg/mL: read-out: Validity (%) for sample concentrations (µg/mL) 500
Summary of the method: (§4)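 Viability was read by MTT absorbance ([…]) after 24 h treatment with 0, 1, 10, 31.25, 62.5, 125, 250 or 500 µg/mL compound. Cultures were grown in RPMI-1640/10% FBS and plated at 5000 cells/well the day before dosing.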

[8] = tested on: MDA-MB-231 human breast cancer cells; test: cell viability assay (MTT); format: cell-based; conditions: 24 h; for viability at 1 µg/mL: read-out: Validity (%) for sample concentrations (µg/mL) 1; for viability at 10 µg/mL: read-out: Validity (%) for sample concentrations (µg/mL) 10; for viability at 31.25 µg/mL: read-out: Validity (%) for sample concentrations (µg/mL) 31.25; for viability at 62.5 µg/mL: read-out: Validity (%) for sample concentrations (µg/mL) 62.5; for viability at 125 µg/mL: read-out: Validity (%) for sample concentrations (µg/mL) 125; for viability at 250 µg/mL: read-out: Validity (%) for sample concentrations (µg/mL) 250; for viability at 500 µg/mL: read-out: Validity (%) for sample concentrations (µg/mL) 500
Summary of the method: as §4

[9] = tested on: Acinetobacter baumannii (A. baumannii), multidrug resistant clinical isolate; test: agar well diffusion assay; format: cell-based; conditions: 500 µg/mL of tested compound, 24 h
Summary of the method: as §3

[10] = tested on: P. aeruginosa; test: MIC by broth microdilution method (resazurin end point); format: cell-based; conditions: Pseudomonas aeruginosa, 24 h at 37 °C
Method: as §1, §2

[11] = tested on: Pseudomonas aeruginosa (P. aeruginosa), multidrug resistant clinical isolate; test: agar well diffusion assay; format: cell-based; conditions: 24 h, 500 µg/mL of tested compound
Summary of the method: as §3

[12] = tested on: S. aureus; test: MIC by broth microdilution method (resazurin end point); format: cell-based; conditions: Staphylococcus aureus; S. aureus; 24 h at 37 °C; read-out: MIC
Method: as §1, §2

Structure (SMILES) | IC50 [2] | melting point | viability at 1 µg/mL [2] | viability at 10 µg/mL [2] | viability at 31.25 µg/mL [2] | viability at 62.5 µg/mL [2] | viability at 125 µg/mL [2] | viability at 250 µg/mL [2] | viability at 500 µg/mL [2] | viability at 1000 µg/mL [2] | zone of inhibition at 500 µg/mL [5] | viability at 31.25 µg/mL [7] | viability at 62.5 µg/mL [7] | viability at 125 µg/mL [7] | viability at 250 µg/mL [7] | viability at 500 µg/mL [7] | IC50 [7] | viability at 1 µg/mL [8] | viability at 10 µg/mL [8] | viability at 31.25 µg/mL [8] | other results
O=C1CSC(c2ccco2)N1c1nc(-c2cc(Cl)cc3c2-c2ccc(Cl)cc2C3)cs1 (centres unmarked) [5j, 3-(4-(2,7-Dichloro-9H-fluoren-4-yl)thiazol-2-yl)-2-(furan-2-yl)thiazolidin-4-one] | 1050 µg/mL (≈ 2150 µM) | 139 to 141 °C | 92.9% | 84.6% | 83.6% | 82.5% | 81.6% | 77.5% | 71.4% | 52.5% | 6 mm | 84.2% | 66.1% | 61.5% | 39.1% | 38.5% | 196 µg/mL (≈ 404 µM) | 94.4% | 74.8% | 67% | MIC [1]: 62.5 µg/mL (≈ 129 µM); MIC [10]: 62.5 µg/mL (≈ 129 µM); zone of inhibition at 500 µg/mL [11]: 8 mm; zone of inhibition at 500 µg/mL [4]: 10 mm; viability at 62.5 µg/mL [8]: 61.4%; viability at 125 µg/mL [8]: 60.2%; viability at 250 µg/mL [8]: 57.2%; viability at 500 µg/mL [8]: 49.3%; IC50 [8]: 435 µg/mL (≈ 896 µM)
COc1cc(C2SCC(=O)N2c2nc(-c3cc(Cl)cc4c3-c3ccc(Cl)cc3C4)cs2)ccc1O (centres unmarked) [5h, 3-(4-(2,7-Dichloro-9H-fluoren-4-yl)thiazol-2-yl)-2-(4-hydroxy-3-methoxyphenyl)thiazolidin-4-one] | 1610 µg/mL (≈ 2970 µM) | 85 to 87 °C | 92.9% | 91.4% | 90.3% | 88.7% | 85.7% | 82.7% | 77.2% | 68% | 11 mm | 95% | 81.7% | 78.7% | 72.8% | 66.2% | > 500 µg/mL | 90.9% | 82.8% | 79.3% | MIC [12]: 62.5 µg/mL (≈ 115 µM); viability at 62.5 µg/mL [8]: 76.8%; viability at 125 µg/mL [8]: 71.7%; viability at 250 µg/mL [8]: 61.7%; viability at 500 µg/mL [8]: 56.7%; IC50 [8]: > 500 µg/mL

Second part, led by results:

IC50 [2] | melting point | Structure (SMILES) | viability at 1 µg/mL [2] | viability at 10 µg/mL [2] | viability at 31.25 µg/mL [2] | viability at 62.5 µg/mL [2] | viability at 125 µg/mL [2] | viability at 250 µg/mL [2] | viability at 500 µg/mL [2] | viability at 1000 µg/mL [2] | zone of inhibition at 500 µg/mL [5] | viability at 31.25 µg/mL [7] | viability at 62.5 µg/mL [7] | viability at 125 µg/mL [7] | viability at 250 µg/mL [7] | viability at 500 µg/mL [7] | IC50 [7] | viability at 1 µg/mL [8] | viability at 10 µg/mL [8] | viability at 31.25 µg/mL [8] | other results
830 µg/mL (≈ 1660 µM) | 249 to 250 °C | O=C1C(Cl)C(c2ccncc2)N1c1nc(-c2cc(Cl)cc3c2-c2ccc(Cl)cc2C3)cs1 (centres unmarked) [6m, 3-Chloro-1-(4-(2,7-dichloro-9H-fluoren-4-yl)thiazol-2-yl)-4-(pyridin-4-yl)azetidin-2-one] | 91.5% | 81.8% | 67.6% | 65.9% | 62.7% | 58.7% | 54.1% | 49.8% | 4 mm | 78.5% | 72.8% | 68.5% | 63% | 55.7% | > 500 µg/mL | 93.2% | 89.9% | 77.6% | MIC [1]: 15.6 µg/mL (≈ 31.3 µM); zone of inhibition at 500 µg/mL [3]: 3 mm; zone of inhibition at 500 µg/mL [4]: 27 mm; zone of inhibition at 500 µg/mL [6]: 6 mm; viability at 62.5 µg/mL [8]: 73.2%; viability at 125 µg/mL [8]: 67.1%; viability at 250 µg/mL [8]: 63.4%; viability at 500 µg/mL [8]: 59.5%; IC50 [8]: > 500 µg/mL
230 µg/mL (≈ 424 µM) | 114 to 116 °C | O=C1C(Cl)C(c2ccc([N+](=O)[O-])cc2)N1c1nc(-c2cc(Cl)cc3c2-c2ccc(Cl)cc2C3)cs1 (centres unmarked) [6f, 3-Chloro-1-(4-(2,7-dichloro-9H-fluoren-4-yl)thiazol-2-yl)-4-(4-nitrophenyl)azetidin-2-one] | 91.3% | 89.8% | 86.2% | 83.2% | 67.3% | 46.6% | 38.6% | 25.4% | 10 mm | 49% | 44.8% | 35.6% | 32.3% | 30.4% | 29 µg/mL (≈ 53.4 µM) | 91.8% | 89.6% | 83% | zone of inhibition at 500 µg/mL [9]: 5 mm; viability at 62.5 µg/mL [8]: 72.4%; viability at 125 µg/mL [8]: 59.7%; viability at 250 µg/mL [8]: 37.2%; viability at 500 µg/mL [8]: 28.9%; IC50 [8]: 188 µg/mL (≈ 346 µM)
175 µg/mL (≈ 359 µM) | 95 to 98 °C | O=C1C(Cl)C(c2ccco2)N1c1nc(-c2cc(Cl)cc3c2-c2ccc(Cl)cc2C3)cs1 (centres unmarked) [6j, 3-Chloro-1-(4-(2,7-dichloro-9H-fluoren-4-yl)thiazol-2-yl)-4-(furan-2-yl)azetidin-2-one] | 95.6% | 87.8% | 76.6% | 68.2% | 54% | 31.3% | 29.2% | 28.3% | 9 mm | 87.3% | 81.4% | 66.3% | 60.9% | 37.2% | 356 µg/mL (≈ 730 µM) | 96.3% | 92.9% | 75.6% | MIC [1]: 31.2 µg/mL (≈ 64.1 µM); zone of inhibition at 500 µg/mL [4]: 20 mm; zone of inhibition at 500 µg/mL [9]: 6 mm; viability at 62.5 µg/mL [8]: 73.1%; viability at 125 µg/mL [8]: 69%; viability at 250 µg/mL [8]: 53.2%; viability at 500 µg/mL [8]: 50.6%; IC50 [8]: 508 µg/mL (≈ 1040 µM)
276 µg/mL (≈ 510 µM) | 110 to 111 °C | CN(C)c1ccc(C2C(Cl)C(=O)N2c2nc(-c3cc(Cl)cc4c3-c3ccc(Cl)cc3C4)cs2)cc1 (centres unmarked) [6e, 3-Chloro-1-(4-(2,7-dichloro-9H-fluoren-4-yl)thiazol-2-yl)-4-(4-(dimethylamino)phenyl)-azetidin-2-one] | 95.4% | 90.3% | 87.5% | 81.7% | 71.1% | 50.7% | 33.2% | 28.8% | 12 mm | 68.8% | 52.5% | 45.6% | 38.6% | 26.8% | 65.4 µg/mL (≈ 121 µM) | 98.2% | 90.2% | 89.9% | MIC [12]: 62.5 µg/mL (≈ 116 µM); viability at 62.5 µg/mL [8]: 85.2%; viability at 125 µg/mL [8]: 69.2%; viability at 250 µg/mL [8]: 41.9%; viability at 500 µg/mL [8]: 39.4%; IC50 [8]: 215 µg/mL (≈ 397 µM)
